Laboratory results: PMC10663924 (Saudi Pharmaceutical Journal : SPJ, 2023)

Experiments:
human VEGFR-2 = human VEGFR-2 (Homo sapiens, UniProt P35968); assay: biochemical
HepG2 cell lines = assay: cells; type: cell-based; details: Homo sapiens, HepG2, read-out: IC50 proliferation of HepG2 (abstract)
MCF7 cell lines = assay: cells; type: cell-based; details: Homo sapiens, MCF7, read-out: IC50 proliferation of MCF7 (abstract)
Vero cell line = assay: MTT safety assay, Vero normal cells; type: cell-based; details: Chlorocebus sabaeus, read-out: IC50 against normal cell line (Vero)
MCF7 cells [1] = assay: Annexin V / PI flow cytometry apoptosis analysis; type: cell-based; details: 30.95 µM
TNF-α = assay: qRT-PCR of TNF-α in MCF7 cells; type: cell-based; details: treated MCF7 cells vs control
IL-2 = assay: qRT-PCR of IL-2 in MCF7 cells; type: cell-based; details: treated MCF7 cells vs control
MCF7 cells [2] = assay: Scratch; type: cell-based
[3] = Determination of LD50 in mice; type: in vivo; details: male, BALB/c, mouse, in vivo, po
BALB/c male mice = assay: Determination of LD50 in mice; type: in vivo; details: mice, 1 and 3 gm/kg single dose orally, 24 h
Liver function test = details: mice; for ALT level: control 25.2 ± 1.2; for AST level: control 29.1 ± 1.1
Human EGFR = Human EGFR (Homo sapiens, UniProt P00533); assay: In vitro multikinase assay
Human PDGFRβ = Human PDGFRβ (Homo sapiens, UniProt P09619); assay: In vitro multikinase assay
[4] = 100 mg/kg oral single dose (group II)
[5] = 200 mg/kg oral single dose (group III)

Sequence of human VEGFR-2 (P35968 20-1356): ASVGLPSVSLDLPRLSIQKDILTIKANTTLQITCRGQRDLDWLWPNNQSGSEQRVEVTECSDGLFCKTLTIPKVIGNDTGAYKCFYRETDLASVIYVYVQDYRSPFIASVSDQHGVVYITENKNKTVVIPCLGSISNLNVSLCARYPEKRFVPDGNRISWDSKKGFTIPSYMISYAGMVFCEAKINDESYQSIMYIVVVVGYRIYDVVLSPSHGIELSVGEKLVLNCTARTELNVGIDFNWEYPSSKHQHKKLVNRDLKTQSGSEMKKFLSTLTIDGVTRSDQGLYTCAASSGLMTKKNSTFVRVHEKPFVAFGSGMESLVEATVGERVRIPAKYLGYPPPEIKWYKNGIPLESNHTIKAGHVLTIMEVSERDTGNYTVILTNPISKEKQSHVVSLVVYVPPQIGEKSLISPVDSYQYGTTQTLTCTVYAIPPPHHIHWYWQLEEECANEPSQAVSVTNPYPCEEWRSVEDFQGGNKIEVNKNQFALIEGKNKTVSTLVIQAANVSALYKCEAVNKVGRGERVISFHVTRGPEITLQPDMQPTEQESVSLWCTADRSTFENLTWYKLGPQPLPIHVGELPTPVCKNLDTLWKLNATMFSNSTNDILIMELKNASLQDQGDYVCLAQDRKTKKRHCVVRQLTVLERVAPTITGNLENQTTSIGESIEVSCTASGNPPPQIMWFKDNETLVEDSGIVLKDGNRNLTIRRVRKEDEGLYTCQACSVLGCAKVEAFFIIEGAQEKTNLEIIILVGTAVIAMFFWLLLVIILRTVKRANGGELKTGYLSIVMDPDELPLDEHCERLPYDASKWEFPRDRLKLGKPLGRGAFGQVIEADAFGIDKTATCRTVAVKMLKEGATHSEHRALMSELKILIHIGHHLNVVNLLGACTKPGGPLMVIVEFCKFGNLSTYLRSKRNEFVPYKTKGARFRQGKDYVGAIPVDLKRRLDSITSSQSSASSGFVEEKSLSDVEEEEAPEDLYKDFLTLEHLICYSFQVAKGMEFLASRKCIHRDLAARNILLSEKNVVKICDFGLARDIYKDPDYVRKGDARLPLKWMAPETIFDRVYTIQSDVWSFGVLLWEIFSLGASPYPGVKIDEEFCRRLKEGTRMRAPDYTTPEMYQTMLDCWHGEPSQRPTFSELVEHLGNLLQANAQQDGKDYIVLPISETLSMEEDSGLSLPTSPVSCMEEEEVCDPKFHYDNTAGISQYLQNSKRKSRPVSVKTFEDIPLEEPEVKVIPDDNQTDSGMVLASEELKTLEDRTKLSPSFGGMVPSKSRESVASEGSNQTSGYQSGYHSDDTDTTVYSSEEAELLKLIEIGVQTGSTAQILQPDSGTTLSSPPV
Sequence of Human PDGFRβ (P09619 33-1106): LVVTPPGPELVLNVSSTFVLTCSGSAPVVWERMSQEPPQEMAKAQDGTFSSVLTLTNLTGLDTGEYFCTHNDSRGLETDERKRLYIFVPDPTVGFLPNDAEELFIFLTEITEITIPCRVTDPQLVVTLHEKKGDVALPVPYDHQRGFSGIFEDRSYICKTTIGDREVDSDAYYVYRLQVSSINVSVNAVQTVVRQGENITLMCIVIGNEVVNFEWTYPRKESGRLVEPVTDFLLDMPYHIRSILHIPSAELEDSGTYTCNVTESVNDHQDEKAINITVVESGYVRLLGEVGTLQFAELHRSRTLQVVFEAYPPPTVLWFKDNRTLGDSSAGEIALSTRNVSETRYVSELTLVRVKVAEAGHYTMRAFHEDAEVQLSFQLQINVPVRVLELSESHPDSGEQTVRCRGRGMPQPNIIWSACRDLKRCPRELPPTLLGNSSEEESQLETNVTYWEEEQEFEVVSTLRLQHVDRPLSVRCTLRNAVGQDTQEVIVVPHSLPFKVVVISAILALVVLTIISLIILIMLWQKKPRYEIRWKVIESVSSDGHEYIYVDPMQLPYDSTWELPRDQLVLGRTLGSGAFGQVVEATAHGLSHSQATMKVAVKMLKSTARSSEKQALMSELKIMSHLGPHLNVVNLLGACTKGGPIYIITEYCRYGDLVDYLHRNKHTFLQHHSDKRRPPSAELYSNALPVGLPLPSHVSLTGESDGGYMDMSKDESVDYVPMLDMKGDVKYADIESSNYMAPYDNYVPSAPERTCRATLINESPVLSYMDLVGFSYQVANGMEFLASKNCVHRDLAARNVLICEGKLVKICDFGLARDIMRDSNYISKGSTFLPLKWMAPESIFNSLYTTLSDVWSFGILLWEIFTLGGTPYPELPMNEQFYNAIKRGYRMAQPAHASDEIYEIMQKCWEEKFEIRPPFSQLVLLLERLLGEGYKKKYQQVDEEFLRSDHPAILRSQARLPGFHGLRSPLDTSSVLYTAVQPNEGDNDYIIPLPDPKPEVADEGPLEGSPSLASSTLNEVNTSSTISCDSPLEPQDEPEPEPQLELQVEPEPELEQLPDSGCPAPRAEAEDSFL
Sequence of Human EGFR (P00533 25-1210): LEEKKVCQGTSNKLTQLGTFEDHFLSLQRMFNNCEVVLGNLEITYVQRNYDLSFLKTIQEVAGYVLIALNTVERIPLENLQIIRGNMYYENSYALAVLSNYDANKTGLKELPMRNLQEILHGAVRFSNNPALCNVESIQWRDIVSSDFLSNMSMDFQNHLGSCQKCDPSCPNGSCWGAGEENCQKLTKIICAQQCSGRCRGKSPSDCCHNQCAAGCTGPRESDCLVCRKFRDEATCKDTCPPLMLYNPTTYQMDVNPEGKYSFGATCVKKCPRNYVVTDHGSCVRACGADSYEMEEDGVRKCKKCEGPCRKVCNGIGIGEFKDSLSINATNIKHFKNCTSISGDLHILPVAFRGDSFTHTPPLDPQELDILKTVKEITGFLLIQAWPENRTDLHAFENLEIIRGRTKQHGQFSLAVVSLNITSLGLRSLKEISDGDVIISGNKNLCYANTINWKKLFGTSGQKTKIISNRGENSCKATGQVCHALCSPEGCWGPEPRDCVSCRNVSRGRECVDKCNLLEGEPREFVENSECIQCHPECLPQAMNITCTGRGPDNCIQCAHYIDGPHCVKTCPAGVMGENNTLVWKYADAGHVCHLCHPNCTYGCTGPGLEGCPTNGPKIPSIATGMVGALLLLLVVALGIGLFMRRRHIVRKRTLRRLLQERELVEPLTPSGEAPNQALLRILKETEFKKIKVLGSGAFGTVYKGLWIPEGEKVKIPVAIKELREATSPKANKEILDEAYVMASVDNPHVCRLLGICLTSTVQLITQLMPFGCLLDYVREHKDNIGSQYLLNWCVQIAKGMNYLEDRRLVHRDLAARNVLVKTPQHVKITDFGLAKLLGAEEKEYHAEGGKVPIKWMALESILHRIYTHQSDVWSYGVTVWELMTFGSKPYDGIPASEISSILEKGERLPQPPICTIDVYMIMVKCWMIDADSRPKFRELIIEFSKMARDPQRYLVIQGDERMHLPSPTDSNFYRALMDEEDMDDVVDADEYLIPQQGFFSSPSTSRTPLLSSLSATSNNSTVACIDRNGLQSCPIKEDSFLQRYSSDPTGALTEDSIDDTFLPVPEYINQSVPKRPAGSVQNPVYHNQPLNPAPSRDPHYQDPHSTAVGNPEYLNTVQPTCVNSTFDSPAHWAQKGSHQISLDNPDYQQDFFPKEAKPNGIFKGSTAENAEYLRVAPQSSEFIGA

Compound: CC(=NNC(=O)c1cccc(C)c1)c1ccc(NC(=O)Cn2c(=O)c3c(ncn3C)n(C)c2=O)cc1 [T-1-MBHEPA, 2-(3,7-dimethyl-2,6-dioxo-2,3,6,7-tetrahydro-1H-purin-1-yl)-N-(4-(1-(2-(3-methylbenzoyl)hydrazono)ethyl)phenyl)acetamide]
- IC50 (human VEGFR-2): 121 ± 51 nM
- IC50 (HepG2 cell lines): 4610 nM
- IC50 (MCF7 cell lines): 4850 nM
- IC50 (Vero cell line): 80000 nM
- Apoptosis Early % (MCF7 cells [1]): 7.22%
- Apoptosis Late % (MCF7 cells [1]): 2.72%
- Apoptosis Total % (MCF7 cells [1]): 21.35%
- Necrosis % (MCF7 cells [1]): 11.41%
- Reduction of TNF-α production (TNF-α): 33%
- Reduction of IL-2 production (IL-2): 58%
- Scratch area at 48 h (MCF7 cells [2]; MCF7): 892.6667
- Scratch width at 48 h (MCF7 cells [2]; MCF7): 891.751
- Area difference % (MCF7 cells [2]; MCF7, 48 h): 71.333%
- RM um (MCF7 cells [2]; MCF7, 48 h): 1.485 um
- Wound closure % um^2 (MCF7 cells [2]; MCF7, 48 h): 7.399 % um^2
- Decrease of scratch width (healing and migration) within 48 h (MCF7 cells [2]; MCF7, 48 h, untreated 65.9 %): 7.4%
- LD50 at 24 h [3]: 5000 mg/kg
- Tolerability of the other doses (BALB/c male mice): well tolerated
- ALT level (Liver function test; [4]): 25.3 ± 2.1
- AST level (Liver function test; [4]): 29.2 ± 1.1
- ALT level (Liver function test; [5]): 28.9 ± 2.1
- AST level (Liver function test; [5]): 31.7 ± 1.8
- IC50 (Human EGFR): 355 ± 14 nM
- IC50 (Human PDGFRβ): 179 ± 9 nM
